Non-standard residues stand in square brackets, D forms with d. Groups on a side chain read outwards from the residue. No end group written: not given here. disulfide linker = not defined here; Pen = CC(C)(S)[C@H](N)C(=O)O
Legend:
Type in all cases: in vivo
DIO mice [1] = test: Food intake in diet-induced obesity (DIO) mice
Method: (§1) C57BL6J male mice, in the following referred to as diet-induced obesity (DIO) mice, were maintained on a high-fat diet (58% energy from fat) and had, for each study, an average body weight of more than 45 gram prior to study start. Mice were either housed individually or double-housed. The mice were maintained on a 12 h dark-light cycle at 21-23° C. Compounds were administered subcutaneously once daily (between 2 pm-5 pm) and food intake (FI) and body weight (BW) measured at the corresponding time. For body composition, measures of fat and lean mass were performed prior to the study (1-3 days prior to study start) and on the final day of the study using an MRI scanner (EchoMRI). The group of mice injected with a vehicle (saline) served as the control group.

DIO mice [2] = test: Body composition (fat and lean mass, MRI) in DIO mice; conditions: for change in fat body mass (Delta change) / change in lean body mass (Delta change): FIG. 7, 40 nmol/kg or equimolar, DIO mice treated for 8 days
Method: as §1

DIO mice [3] = test: Body weight in diet-induced obesity (DIO) mice; conditions: for body weight percentage (BW %) reduction: FIG. 4, 40 nmol/kg or equimolar, DIO mice treated for 8 days; for reduction in body weight (BW %): FIG. 8, after 10 days of treatment; for reduction in body weight %: FIG. 14, DIO mice treated for 5 days, N=7
Method: as §1

[4] = FIG. 5, equimolar doses, DIO mice treated for 8 days, compared to vehicle and memantine
[5] = FIG. 6, 40 nmol/kg or equimolar, DIO mice treated for 8 days
[6] = 100 nmol/kg or equimolar, DIO mice
[7] = FIG. 9, 100 nmol/kg or equimolar, DIO mice treated for 10 days
[8] = FIG. 11, 100 nmol/kg, DIO mice treated for 10 days

## GLP-1 Cys40/Memantine: conjugate of peptide of SEQ ID NO:1 and memantine appended via disulfide linker, unmodified cysteine (cysteine linked) (HAEGTFTSDVSSYLEEQAAKEFIAWLVKGGPSSGAPPPSC; not fully specified (residue 40, C-terminus); ends and bridges not checked; listed as Homo sapiens)
DIO mice [1]; [4]
  cumulative food intake (FI Cumulative): lowered cumulative food intake
DIO mice [1]; [5]
  daily food intake (FI daily): lowered daily food intake
DIO mice [2]
  change in fat body mass (Delta change): approximately 4 g
  change in lean body mass (Delta change): nearly no change
DIO mice [3]
  body weight percentage (BW %) reduction: approximately 7%

## CC12CC3CC(C)(C1)CC(N)(C3)C2 [memantine, reference compound]
DIO mice [2]
  change in fat body mass (Delta change): reduction in fat body mass
  change in lean body mass (Delta change): nearly no change

## C[C@]12N[C@H](Cc3ccccc31)c1ccccc12 [MK801, reference compound]
DIO mice [3]; [6]
  reduction in body weight (BW %): nearly no percentage change

## GIP/GLP-1/MK801 conjugate: co-agonist GIP/GLP-1 Pen40/MK801 conjugate, peptide according to SEQ ID NO:9 (YGEGTFTSDYSIYLDKQAAKEFVNWLLAGGPSSGAPPPS[Pen]([disulfide linker-MK801]); not fully specified (C-terminus); printed as YX1EGT FTSDY SIYLD KQAAX1 EFVNW LLAGG PSSGA PPPSX2; reading uncertain; also: MK801 attached via disulfide linker; listed as Homo sapiens)
DIO mice [1]; FIG. 34, 50 nmol/kg, DIO mice treated for 7 days, control group 15 g
  cumulative food intake (Cumulative FI): approximately 3 g
DIO mice [3]; FIG. 33, 50 nmol/kg, DIO mice treated for 7 days
  overall reduction in body weight compared to the control group: approximately 25%

## GLP-1 Cys40/MK801: peptide of SEQ ID NO:1 conjugated with chemical linker derivatized MK801, cysteine linked (HAEGTFTSDVSSYLEEQAAKEFIAWLVKGGPSSGAPPPSC; not fully specified (residue 40, C-terminus); ends and bridges not checked; listed as Homo sapiens)
DIO mice [1]; [7]
  cumulative food intake (FI Cumulative): approximately 13 g/day
DIO mice [1]; FIG. 9, 100 nmol/kg, DIO mice treated for 10 days
  cumulative food intake less than the vehicle-treated mice: approximately 10 g/day
DIO mice [1]; FIG. 10, 100 nmol/kg, DIO mice treated for 10 days, compared to vehicle
  daily food intake (FI daily): reduction in food intake was observed all 10 days
DIO mice [2]; [8]
  change in fat mass (reduction): ~5 g
  change in lean body mass: reduction in both fat and lean body mass
DIO mice [3]; [6]
  reduction in body weight (BW %): ~12%

## GLP-1 Cys40: the peptide of SEQ ID NO:1, C-terminal unmodified cysteine (HAEGTFTSDVSSYLEEQAAKEFIAWLVKGGPSSGAPPPSC; not fully specified (C-terminus); ends and bridges not checked; listed as Homo sapiens)
DIO mice [1]; [4]
  cumulative food intake (FI Cumulative): lowered cumulative food intake
DIO mice [1]; [5]
  daily food intake (FI daily): lowered daily food intake
DIO mice [1]; FIG. 6, 40 nmol/kg or equimolar, DIO mice treated for 8 days, listed as GLP-1
  daily food intake (FI daily): only a slight reduction in food intake
DIO mice [1]; [7]
  cumulative food intake (FI Cumulative): lowered cumulative food intake
DIO mice [2]
  change in fat body mass (Delta change): reduction in fat body mass
  change in lean body mass (Delta change): nearly no change
DIO mice [3]
  body weight percentage (BW %) reduction: lowered BW %
DIO mice [3]; [6]
  reduction in body weight (BW %): approximately 8%
DIO mice [3]; FIG. 12, 100 nmol/kg or equimolar, DIO mice, after 5 days of treatment
  body weight reduction: approximately 4%
DIO mice [3]; 100 nmol/kg or equimolar
  reduction in body weight %: approximately 6%

## GLP-1 Pen40: peptide of SEQ ID NO:1 with the Pen40 (L-penicillamine) modification (HAEGTFTSDVSSYLEEQAAKEFIAWLVKGGPSSGAPPPSC; not fully specified (residue 40, C-terminus); ends and bridges not checked; listed as Homo sapiens)
DIO mice [3]; 100 nmol/kg or equimolar
  reduction in body weight %: approximately 6%

From patent US20230183335A1, “GLP1R AGONIST NMDAR ANTAGONIST CONJUGATES” (KØBENHAVNS UNIVERSITET, priority 2020, published 2023)
